{"source": "patent US20200071361A1", "about": "“ENGINEERED ANTIMICROBIAL AMPHIPHILIC PEPTIDES AND METHODS OF USE” (priority 2017, published 2020)", "experiment_in_all_cases": "Broth microdilution MIC (Table 2)", "format_in_all_cases": "cell-based", "key": {"[1]": {"tested_on": "Acinetobacter baumannii ATCC 19606 (non-MDR)", "settings": "ATCC19606, read-out: MIC", "description": "(§1) Each peptide was formulated in PBS buffer prior to testing. Peptides of SEQ ID NO:5 and SEQ ID NO:8 were brought up in 100% DMSO with 0.002% polysorbate-80 at 1.28 mg/mL (40× the highest final test concentration of 32 mcg/mL). Final test concentration of DMSO was 2.5% in the assay at the first dilution for those two compounds.\n(§2) Mueller Hinton II broth (MHB II; BD; Lot Nos. 6258541 and 7143896) was used for MIC testing of aerobic organisms. 0.002% polysorbate 80 (P80) was added to the test medium.\n(§3) MIC values were determined using a broth microdilution procedure described by CLSI (1, 3). Automated liquid handlers (Multidrop 384, Labsystems, Helsinki, Finland; Biomek 2000 and Biomek FX, Beckman Coulter, Fullerton Calif.) were used to conduct serial dilutions and liquid transfers.\n(§4) To prepare the drug mother plates, which would provide the serial peptide dilutions for the replicate daughter plates, the wells of columns 2-12 of standard 96-well microdilution plates (Costar 3795) were filled with 150 μl of the designated diluent for each row of peptide. The test articles and comparator compounds (300 μl at 40× the highest concentration to be tested) were dispensed into the appropriate wells in column 1. The Biomek 2000 was then used to make 2-fold serial dilutions in the mother plates from column 1 through column 11. The wells of Column 12 contained no drug and served as the organism growth control wells for the assay.\n(§5) The daughter plates were loaded with 185 μL per well of MHB II using the Multidrop 384. The daughter plates were completed on the Biomek FX instrument which transferred 5 uL of peptide solution from each well of a mother plate to the corresponding well of each daughter plate in a single step. A standardized inoculum of each test organism was prepared per CLSI methods. The inoculum for each organism was dispensed into sterile reservoirs divided by length (Beckman Coulter), and the Biomek 2000 was used to inoculate the plates. Daughter plates were placed on the Biomek 2000 work surface in reverse orientation so that inoculation took place from low to high drug concentration. The plates were then inoculated with 10 μL of the inoculum resulting in a final cell density of approximately 5×10^5 CFU/mL, per well.\n(§6) Plates were stacked 3-4 high, covered with a lid on the top plate, placed in plastic bags, and incubated at 35° C. for 16 to 20 hrs. Following incubation, the microplates were removed from the incubator and viewed from the bottom using a plate viewer. […] The MIC was read and recorded as the lowest concentration of peptide that inhibited visible growth of the organism."}, "[2]": {"tested_on": "Pseudomonas aeruginosa ATCC BAA-2109 (MDR)", "settings": "ATCCBAA2109", "description": "as §1, §2, §3, §4, §5, §6"}, "[3]": {"tested_on": "Acinetobacter baumannii ATCC BAA-1797 (MDR)", "settings": "ATCCBAA1797, read-out: MIC", "description": "as §1, §2, §3, §4, §5, §6"}, "[4]": {"tested_on": "Enterococcus faecium ATCC 51559 (VRE)", "settings": "read-out: MIC", "description": "as §1, §2, §3, §4, §5, §6"}, "[5]": {"tested_on": "Klebsiella pneumoniae ATCC BAA-1705 (KPC)", "settings": "ATCCBAA1705", "description": "as §1, §2, §3, §4, §5, §6"}, "[6]": {"tested_on": "Escherichia coli ATCC BAA-2471 (NDM-1)", "settings": "ATCCBAA2471", "description": "as §1, §2, §3, §4, §5, §6"}, "[7]": {"tested_on": "Streptococcus agalactiae ATCC 13813", "settings": "ATCC13813, read-out: MIC", "description": "as §1, §2, §3, §4, §5, §6"}, "[8]": {"tested_on": "Staphylococcus aureus ATCC 43300 (MRSA)", "settings": "read-out: MIC", "description": "as §1, §2, §3, §4, §5, §6"}, "[9]": {"tested_on": "Enterococcus faecalis ATCC 29212 (VSE; QC)", "settings": "ATCC29212, read-out: MIC", "description": "as §1, §2, §3, §4, §5, §6"}, "[10]": {"tested_on": "Escherichia coli ATCC 25922 (QC)", "settings": "ATCC25922", "description": "as §1, §2, §3, §4, §5, §6"}, "[11]": {"tested_on": "Staphylococcus aureus NRS382 (USA100; HA-MRSA)", "settings": "read-out: MIC", "description": "as §1, §2, §3, §4, §5, §6"}, "[12]": {"tested_on": "Streptococcus pneumoniae ATCC 49619 (QC)", "settings": "ATCC49619, read-out: MIC", "description": "as §1, §2, §3, §4, §5, §6"}}}
{"smiles": "C[C@H]1COc2c(N3CCN(C)CC3)c(F)cc3c(=O)c(C(=O)O)cn1c23", "note": "[Levofloxacin]", "values": [{"measurement": "MIC", "setting": "[1]", "result": 0.25, "unit": "µg/mL"}, {"measurement": "MIC", "setting": "[2]", "result": 1, "unit": "µg/mL"}, {"measurement": "MIC", "setting": "[3]", "result": 0.25, "unit": "µg/mL"}, {"measurement": "MIC", "setting": "[4]", "result": 16, "unit": "µg/mL"}, {"measurement": "MIC", "setting": "[5]", "result": 64, "unit": "µg/mL"}, {"measurement": "MIC", "setting": "[6]", "result": 64, "unit": "µg/mL"}, {"measurement": "MIC", "setting": "[7]", "result": 0.5, "unit": "µg/mL"}, {"measurement": "MIC", "setting": "[8]", "result": 0.25, "unit": "µg/mL"}, {"measurement": "MIC", "setting": "[9]", "result": 1, "unit": "µg/mL"}, {"measurement": "MIC", "setting": "[10]", "result": 0.015, "unit": "µg/mL"}, {"measurement": "MIC", "setting": "[11]", "result": 8, "unit": "µg/mL"}, {"measurement": "MIC", "setting": "[12]", "result": 1, "unit": "µg/mL"}]}
